Literature values, collected in patent publication US20100137843A1, “Delivery devices for modulating inflammation” (Searete LLC, a limited liability corporation of the State …, priority 2008, published 2010).

Legend:
[1] = single agent, 400 mg infused over one hour
[2] = test system: Src family kinase; conditions: also its dependent cellular responses
[3] = test system: proteasome; conditions: cultured breast cancer cells; copper-bound
[4] = test system: aldehyde dehydrogenase; conditions: without toxicity
[5] = molecular target: Toll-like receptor 4 (Homo sapiens, UniProt O00206)
[6] = test system: Epha1; conditions: at nanomolar concentrations

Sequence of Toll-like receptor 4 (O00206 24-839, species assumed): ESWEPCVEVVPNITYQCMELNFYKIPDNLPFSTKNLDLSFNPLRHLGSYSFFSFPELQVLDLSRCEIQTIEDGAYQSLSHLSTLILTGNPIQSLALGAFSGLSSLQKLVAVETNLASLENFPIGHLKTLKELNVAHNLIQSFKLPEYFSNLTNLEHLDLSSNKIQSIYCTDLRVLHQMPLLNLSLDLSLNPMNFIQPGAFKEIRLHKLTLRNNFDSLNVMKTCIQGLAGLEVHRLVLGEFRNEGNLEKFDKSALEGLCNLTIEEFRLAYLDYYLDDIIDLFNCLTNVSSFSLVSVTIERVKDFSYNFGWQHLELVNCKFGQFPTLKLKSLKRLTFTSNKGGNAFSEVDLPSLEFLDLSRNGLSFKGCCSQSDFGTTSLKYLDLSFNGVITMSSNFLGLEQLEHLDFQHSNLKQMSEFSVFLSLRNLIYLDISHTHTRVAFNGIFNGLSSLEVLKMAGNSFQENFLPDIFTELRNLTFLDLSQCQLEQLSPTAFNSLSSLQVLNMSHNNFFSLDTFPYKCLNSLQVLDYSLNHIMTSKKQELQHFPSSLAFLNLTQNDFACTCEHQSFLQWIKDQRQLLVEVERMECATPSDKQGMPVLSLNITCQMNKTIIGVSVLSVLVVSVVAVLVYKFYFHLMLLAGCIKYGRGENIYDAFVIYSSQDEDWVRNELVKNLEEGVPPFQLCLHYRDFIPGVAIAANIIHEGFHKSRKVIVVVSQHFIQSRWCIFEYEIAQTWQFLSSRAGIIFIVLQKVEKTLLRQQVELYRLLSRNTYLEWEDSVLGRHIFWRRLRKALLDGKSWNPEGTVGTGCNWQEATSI

Compound: CCN(CC)CCCC(C)Nc1ccnc2cc(Cl)ccc12.O=P(O)(O)O.O=P(O)(O)O (stereo not drawn) [Chloroquine phosphate, 7-chloro-4-[[4-(diethylamino)-1-methylbutyl]amino]quinoline phosphate (1:2)]
- tolerability of intravenous infusion [1]: without complication

Compound: CCN(CC)CCCC(C)Nc1ccnc2cc(Cl)ccc12 (stereo not drawn) [Chloroquine]
- inhibition of CpG-induced Src family kinase activation [2]: does not inhibit

Compound: CCN(CC)C(=S)SSC(=S)N(CC)CC [Disulfiram, 1-(diethylthiocarbamoyldisulfanyl)-N,N-diethyl-methanethioamide]
- proteasomal activity [3]: inhibits proteasomal activity
- inhibition of aldehyde dehydrogenase [4]: inhibits

Compound: Cl.Cl.Nc1ccccc1Oc1ccc2c(N)nsc2c1 [Example M62812, 3-amino-6-(2-aminophenoxy)-1,2-benzisothiazole dihydrochloride]
- inhibition of Toll-like receptor 4 [5]: inhibitor

Compound: Cc1nc(Nc2ncc(C(=O)Nc3c(C)cccc3Cl)s2)cc(N2CCN(CCO)CC2)n1.O [dasatinib, N-(2-chloro-6-methylphenyl)-2-[[6-[4-(2-hydroxyethyl)-1-piperazinyl]-2-methyl-4-pyrimidinyl]amino]-5-thiazolecarboxamide, monohydrate]
- inhibition of Epha1 [6]: inhibits
